Measurements taken from patent US11672815B2, “Composition for inhibiting immune cell proliferation comprising sialyllactose or derivative thereof and method thereof” (CUPIONE CO., LTD., priority 2017, dated 2023).
Each block holds one compound with its values, some of them ahead of it.

What was measured:
[1] = test system: DMM-induced osteoarthritis mouse model; assay: DMM-induced osteoarthritis mouse model, oral administration; type: in vivo
Method: All animal experiments were approved by the Animal Care and Use Committee of the University of Ajou. For osteoarthritis models, 8-week-old male C57BL/6 mice were subjected to destabilization of the medial meniscus (DMM) surgery. Mice knee joints were processed for histological analysis 10 weeks after surgery. In detail, the experimental mice also received gavage feeding of PBS containing 3′-sialyllactose (100 mg/Kg) starting at 2 weeks prior to DMM, and oral feeding on every other day during 4 weeks after surgery, and performed three times a week for total 6 weeks until the end of the experiment. Then, the mice were sacrificed. Control mice were administered with PBS in the same manner.
Knee joints of the mice sacrificed in Example 6-1 were fixed in 4% paraformaldehyde, treated with 0.5 M EDTA (pH 8.0) for 2 weeks, and embedded in paraffin. The paraffin blocks were sectioned at a thickness of 5 μm and serial-sectioned at 40-μm intervals. The paraffin sections were deparaffinized in xylene and hydrated with graded ethanol. Cartilage destruction was detected by Safranin-O staining and scored using the Osteoarthritis Research Society International (OARSI) grading system. Mmp3 (ab52915), Mmp13 (ab51072), Cox2 (SC-1745), pErk ((#9101), IjB (9242), Sox9 (NBP2-24659; Novus, Littleton, USA) and Col2a1 (MAB8887) were immunostained as previously described.

[2] = test system: collagen-induced arthritis (CIA) mouse model; assay: Prophylactic effect in collagen-induced arthritis (CIA) mouse model; type: in vivo; conditions: 100 mg/kg and 500 mg/kg oral, 4 weeks
Method: In order to examine prophylactic effects of 3′-sialyllactose during development of arthritis, collagen-induced arthritis (CIA) mouse model was orally administered with 3′-sialyllactose three times a week for 4 weeks at various concentrations (100 mg/kg and 500 mg/kg). In detail, the mouse models immunized day 1 and day 21 were orally administered with 3′-sialyllactose every other days for 4 weeks after second immunization. Control groups were orally administered with PBS, lactose, or sialic acid.

[3] = test system: mouse FLS; assay: Chemokine, pro-inflammatory cytokine and COX2 expression in stimulated mouse FLS; type: cell-based; conditions: IL-1β-, IL-6-, IL-17-, and TNF-α-stimulated mouse FLS; 100 μM or 250 μM, 24 hrs
Method: (§1) Anti-chemokine and anti-inflammatory effects of 3′-sialyllactose were examined. First, purity of mouse FLS was examined by FACS analysis, and then no effects of 3′-sialyllactose on FLS proliferation and cytotoxicity were examined by WST-1 assay (see FIGS. 14A-A to 14A-C). […] Therefore, in a subsequent in vitro experiment, 3′-sialyllactose was used at a concentration of 0 μM to 250 μM. In order to examine effects of 3′-sialyllactose on IL-1β-, IL-6-, IL-17-, and TNF-α-induced chemokines (e.g., CCL2, CCL5, CCL7, CXCL1, CXCL2, and CXCL5), pro-inflammatory cytokines (IL-1, IL-6, and TNF-α), and COX2 expression, IL-1β-, IL-6-, IL-17-, and TNF-α-stimulated human RA-FLS and mouse FLS were treated with 3′-sialyllactose (100 μM or 250 μM) for 24 hrs.

[4] = test system: atopic dermatitis mouse model; assay: Atopic dermatitis mouse model, oral administration; type: in vivo; conditions: 100 mg/kg or 500 mg/kg oral
Method: In order to examine inhibitory effect of 3′-sialyllactose on atopic dermatitis, ear thickness of atopic dermatitis mouse model was examined at 28 days after oral administration of 100 mg/kg or 500 mg/kg of 3′-sialyllactose. Further, the left ear skin of the mouse was cut into thin sections, stained with hematoxylin and eosin (H&E), and stained with toluidine blue.

[5] = test system: type II collagen (Col2a1); assay: Col2a1 expression in chondrocytes (qRT-PCR, Western blotting); type: cell-based, mouse; conditions: for Col2a1 expression in chondrocytes: 0 to 250 μM, 36 hrs; for Col2a1 expression suppressed by IL-1β in chondrocytes: 5 ng/ml of IL-1β
Method: In order to examine effects of 3′- or 6′-sialyllactose on cartilage formation and regeneration, the chondrocytes obtained in Example 1 were incubated for 36 hrs and then treated with 3′- or 6′-sialyllactose at a concentration of 0 μM, 10 μM, 50 μM, 100 μM, or 250 μM, followed by further incubation for 36 hrs.
Next, in order to perform qRT-PCR, RNA was extracted from the chondrocytes using a TRI reagent (Molecular Research Center Inc.), and cDNA obtained by reverse transcription of RNA was amplified by PCR using primers of SEQ ID NOS: 1 and 2 under condition of annealing temperature of 55° C. to examine expression of type II collagen (Col2a1, 173 bp) which is essential for cartilage formation. As a control group, Gapdh (450 bp, annealing temperature of 58° C.) was examined by using primers of SEQ ID NOS: 3 and 4.
Further, a whole cell lysate was extracted from the chondrocytes using a lysis buffer (150 mM NaCl, 1% NP-40, 50 mM Tris, 5 mM NaF) containing protease and phosphatase inhibitor cocktails (Roche), and Col2a1 expression in the cells was examined. Western blotting was performed using anti-Col2a1 antibody (Millipore) and anti-Erk antibody (Cell signaling), and thickness and concentration of Western blot bands were measured by a computer program and relative values thereof were determined by densitometry (FIGS. 4A and 4B).
IL-1β is a representative inflammatory cytokine inhibiting Col2a1 expression in chondrocytes. Chondrocytes were incubated for 36 hrs, and then treated with 5 ng/ml of IL-1β (GeneScript, USA) for 24 hrs to confirm that Col2a1 expression was decreased by IL-1β.
In order to examine whether the decreased Col2a1 expression is increased again in chondrocytes by 3′- or 6′-sialyllactose, qRT-PCR and Western blotting were performed in the same manner as in Example 2-1.

[6] = test system: mouse models with rheumatoid arthritis; assay: Therapeutic effect in mice with arthritis; type: in vivo; conditions: 500 mg/kg oral every other day for 2 weeks
Method: Next, in order to examine therapeutic effects of 3′-sialyllactose, mice with arthritis were orally administered with 3′-sialyllactose. In detail, 8-week-old DBA mice were immunized day 0 and day 21, and then orally administered with 500 mg/kg of 3′-sialyllactose every other days for 2 weeks. Control groups were administered with lactose (250 mg/kg), sialic acid (250 mg/kg), or MTX (1 mg/kg).

[7] = test system: extracellular-signal regulated kinase (Erk); assay: Erk phosphorylation in IL-1β-treated chondrocytes (Western blotting, densitometry); type: cell-based, mouse; conditions: 5 ng/ml of IL-1β, 0 μM, 50 μM, 100 μM, or 250 μM
Method: Chondrocytes of mouse knee joint were treated with 5 ng/ml of IL-1β for 10 min to examine activation of extracellular-signal regulated kinase (Erk) through Erk phosphorylation.
Chondrocytes were co-treated with 5 ng/ml of IL-1β and 0 μM, 50 μM, 100 μM, or 250 μM of 3′-sialyllactose, and Erk phosphorylation increased by IL-1β was confirmed to be decreased by 3′-sialyllactose (FIG. 8).

[8] = test system: synovial tissues of ankle and knee joints; assay: Staining of ankle and knee joints in rheumatoid arthritis mice (FLS and immune cell proliferation); type: in vivo, mouse
[9] = test system: mouse FLS; assay: WST-1 assay on mouse FLS; type: cell-based
Method: as §1

[10] = test system: Mmp13; assay: Mmp13 expression in IL-1β-treated chondrocytes (qRT-PCR, Western blotting); type: cell-based, mouse; conditions: 5 ng/ml of IL-1β, 0 to 250 μM, 24 hrs; concentration-dependent
Method: (§2) IL-1β is a representative inflammatory cytokine that decreases Col2a1 essential for cartilage formation in chondrocytes and also promotes articular inflammation and cartilage tissue destruction. Chondrocytes were treated with 5 ng/ml of IL-1β by time, and then qRT-PCR was performed using conditions and primers of the following Table 1 according to the method of Example 2-1 to examine inhibition of Mmp3 and Mmp13 expression.
(§3) Secretory proteins such as Mmp3 and Mmp13 were allowed to react at 0° C. for 20 min after reacting 900 μl of serum-free medium (conditioned medium) with 100 μl of trichloroacetic acid (TCA). Next, a supernatant was discarded by centrifugation at 12,000 rpm and 4° C. for 10 min, and then reacted with 500 μl of 100% cold acetone at […] for 1 hr. The sample reacting with 100% acetone was centrifuged to discard a supernatant, and proteins were finally precipitated and detected. Western blotting was performed using anti-Mmp3 antibody (Abcam) and anti-Mmp13 antibody (Abcam), and thickness and concentration of Western blot bands were measured by a computer program and relative values thereof were determined by densitometry.

[11] = test system: chondrocytes; assay: Cytotoxicity of sialyllactose on chondrocytes (EZ-Cytox cell viability assay); type: cell-based, mouse; conditions: 0 μM, 10 μM, 50 μM, 100 μM, or 250 μM, 24 hrs
Method: Chondrocytes were obtained from cartilage tissues derived from femoral heads, femoral condyles, and tibial plateaus of normal mouse at 5 days after birth. The obtained chondrocytes were cultured in DMEM medium (Gibco, USA) containing 10% (v/v) fetal bovine serum (Gibco, USA), 50 μg/ml of streptomycin (Sigma-Aldrich, USA) and 50 unit/ml of penicillin (Sigma-Aldrich, USA).
In order to confirm that 3′- or 6′-sialyllactose has no cytotoxicity on chondrocytes, chondrocytes were cultured in a 96-well culture plate at a density of 9×10^3 cells/well, and then treated with 3′- or 6′-sialyllactose (Genechem Inc., Daejeon, Korea) at a concentration of 0 μM, 10 μM, 50 μM, 100 μM, or 250 μM, followed by incubation in a 5% CO2 incubator at 37° C. for 24 hrs. Cytotoxicity of 3′- or 6′-sialyllactose on chondrocytes was confirmed by measuring absorbance at 450 nm using an EZ-Cytox Cell viability assay kit (DoGen, Korea).

[12] = test system: human RA-FLS; assay: Chemokine, pro-inflammatory cytokine and COX2 expression in stimulated human RA-FLS; type: cell-based; conditions: IL-1β-, IL-6-, IL-17-, and TNF-α-stimulated human RA-FLS; 100 μM or 250 μM, 24 hrs
Method: as §1

[13] = test system: Mmp3; assay: Mmp3 expression in IL-1β-treated chondrocytes (qRT-PCR, Western blotting); type: cell-based, mouse; conditions: 5 ng/ml of IL-1β, 0 to 250 μM, 24 hrs; concentration-dependent
Method: as §2, §3

[14] = test system: Sox-9; assay: Sox-9 reporter gene luciferase activity in chondrocytes; type: cell-based, mouse; conditions: co-treated with 5 ng/ml IL-1β and 0 to 250 μM for 24 hrs
Method: A Sox-9 reporter gene was prepared by inserting 48-bp Sox9 binding site in the first intron of human Col2a1 gene into the upstream of SV40 promoter in pGL3 vector (Zhou G et al., J Biol Chem 1998, 12, 14989-97).
1 μg of the Sox-9 reporter gene was transfected into chondrocytes using lipofectamine 2000 (Invitrogen) for 3 hrs. The transfected cells were co-treated with 5 ng/ml interleukin 1 beta (IL-1β) and 0 μM, 10 μM, 50 μM, 100 μM, or 250 μM of 3′- or 6′-sialyllactose for 24 hrs, and then chondrocytes were recovered to examine Sox-9 activity by luciferase activity.

[15] = test system: Mmp3, Mmp13, and COX2; assay: Mmp3, Mmp13 and COX2 expression in IL-1β-treated mouse FLS; type: cell-based
Method: as §1
FIGS. 14A-A and 14A-B show FACS results of analyzing marker expression on the FLS surfaces in a mouse according to passages (FIG. 14A-A: CD90.2; FIG. 14A-B: CD14), and a graph of cytotoxicity confirmed by WST-1 assay (FIG. 14A-C), and FIG. 14B is a graph showing Mmp3, Mmp13, and COX2 expression levels according to lactose, sialic acid, and 3′-sialyllactose in IL-1β-treated mouse FLS.

Sox-9 activity decreased by IL-1β [14]: restored
Structure (SMILES): CC(=O)N[C@H]1C([C@H](O)[C@H](O)CO)O[C@@](O[C@@H]2C(O)[C@H](O[C@@H]3C(CO)OC(O)C(O)[C@H]3O)OC(CO)[C@@H]2O)(C(=O)[O-])C[C@H]1O.[Na+] (stereo partly drawn) [3′-sialyllactose]
OARSI scores (cartilage destruction) compared with control mouse ([1]; 100 mg/Kg gavage, 10 weeks after DMM surgery): remarkably low
Cox2 expression (immunohistochemical staining) ([1]; 100 mg/Kg oral, DMM model): decreased
Mmp3 expression (immunohistochemical staining) ([1]; 100 mg/Kg oral, DMM model): decreased
Mmp13 expression (immunohistochemical staining) ([1]; 100 mg/Kg oral, DMM model): decreased
expression of pro-inflammatory cytokines (mouse sera) [2]: decreased
swelling of CIA mouse model [2]: alleviated
expression levels of chemokines, pro-inflammatory cytokines, and COX2 [3]: remarkably decreased
mouse ear thickness ([4]; 28 days): decreased
ear dermal thickness ([4]; concentration-dependent): decreased
ear epidermal thickness ([4]; concentration-dependent): decreased
number of mast cells in the ear skin (toluidine blue staining) ([4]; concentration-dependent): decreased
Col2a1 expression in chondrocytes [5]: increased
Col2a1 expression suppressed by IL-1β in chondrocytes [5]: gradually increased
expression of pro-inflammatory cytokines (mouse sera) [6]: decreased
swelling [6]: alleviated
Erk phosphorylation increased by IL-1β [7]: decreased
proliferation of macrophages by rheumatoid arthritis ([8]; ankle and knee synovial tissue, anti-CD68 staining): significantly decreased
proliferation of FLS by rheumatoid arthritis ([8]; ankle and knee synovial tissue, anti-CD90.2 staining): significantly decreased
proliferation of neutrophils by rheumatoid arthritis ([8]; ankle and knee synovial tissue, elastase staining): significantly decreased
synovial hyperplasia and infiltration of mononuclear cells into the ankle and knee joints ([8]; hematoxylin and Safranin-O staining): inhibit
FLS proliferation and cytotoxicity [9]: no effects
Mmp13 expression increased by IL-1β in chondrocytes [10]: decreased
cytotoxicity on chondrocytes [11]: did not show cytotoxicity
expression levels of chemokines, pro-inflammatory cytokines, and COX2 [12]: remarkably decreased
Mmp3 expression increased by IL-1β in chondrocytes [13]: decreased

Sox-9 activity decreased by IL-1β [14]: restored
Structure (SMILES): CC(=O)N[C@H]1C([C@H](O)[C@H](O)CO)O[C@@](OCC2O[C@@H](O[C@@H]3C(CO)OC(O)C(O)[C@H]3O)C(O)[C@@H](O)[C@H]2O)(C(=O)[O-])C[C@H]1O.[Na+] (stereo partly drawn) [6′-sialyllactose]
Col2a1 expression in chondrocytes [5]: increased
Col2a1 expression suppressed by IL-1β in chondrocytes [5]: gradually increased
Mmp13 expression increased by IL-1β in chondrocytes [10]: decreased
cytotoxicity on chondrocytes [11]: did not show cytotoxicity
Mmp3 expression increased by IL-1β in chondrocytes [13]: decreased

Structure (SMILES): OC[C@H]1O[C@@H](O[C@H]2[C@H](O)[C@@H](O)C(O)O[C@@H]2CO)[C@H](O)[C@@H](O)[C@H]1O (stereo partly drawn) [lactose]
Mmp3, Mmp13, and COX2 expression levels, control groups for 3′-sialyllactose [15]: no significant difference
